Measured values from ChEMBL document CHEMBL1146607, “Synthesis and antifungal activity of 2,5-disubstituted-6-arylamino-4,7-benzimidazolediones” (2003).
Converted amounts (≈) assume the structure as drawn.

Assays:
Type in all cases: functional
Aspergillus niger = assay: In vitro antifungal activity against Aspergillus niger KCTC 1231 was measured
Pichia kudriavzevii = assay: In vitro antifungal activity against Candida krusei ATCC 749 was measured
Candida tropicalis = assay: In vitro antifungal activity against Candida tropicalis ATCC 28775 was measured
Candida albicans = assay: In vitro antifungal activity against Candida albicans ATCC 10231 was measured

Row | Structure (SMILES) | MIC (Aspergillus niger) [µg/mL] | MIC (Pichia kudriavzevii) [µg/mL] | MIC (Candida tropicalis) [µg/mL] | MIC (Candida albicans) [µg/mL]
1 | Nc1nc(=O)[nH]cc1F [FLUCYTOSINE] | 6.3 (≈ 48.8 µM) | 6.3 (≈ 48.8 µM) | 6.3 (≈ 48.8 µM) | 3.2 (≈ 24.8 µM)
2 | O=C1C=CC(=O)c2[nH]c(-c3ccccn3)nc21 | 100 (≈ 444 µM) | > 100 | 100 (≈ 444 µM) | > 100
3 | O=C1C(Cl)=C(Nc2ccc(Cl)cc2)C(=O)c2[nH]c(-c3ccncc3)nc21 | 100 (≈ 260 µM) | > 100 | 3.2 (≈ 8.31 µM) | > 100
4 | CCOc1ccc(NC2=CC(=O)c3nc(-c4ccccn4)[nH]c3C2=O)cc1 | 50 (≈ 139 µM) | 1.6 (≈ 4.44 µM) | 0.8 (≈ 2.22 µM) | 50 (≈ 139 µM)
5 | COc1ccc(NC2=C(Cl)C(=O)c3nc(-c4ccncc4)[nH]c3C2=O)cc1 | 100 (≈ 263 µM) | > 100 | 25 (≈ 65.7 µM) | > 100
6 | O=C1C(Cl)=C(Cl)C(=O)c2[nH]c(-c3ccccn3)nc21 | 100 (≈ 340 µM) | > 100 | 25 (≈ 85 µM) | > 100
7 | O=C1C=C(Nc2ccc(I)cc2)C(=O)c2[nH]c(-c3ccccn3)nc21 | 100 (≈ 226 µM) | 1.6 (≈ 3.62 µM) | 0.8 (≈ 1.81 µM) | 50 (≈ 113 µM)
8 | COc1ccc(NC2=CC(=O)c3[nH]c(-c4ccccn4)nc3C2=O)cc1 | 50 (≈ 144 µM) | 1.6 (≈ 4.62 µM) | 0.8 (≈ 2.31 µM) | 6.3 (≈ 18.2 µM)
9 | O=C1C(Cl)=C(Nc2ccc(F)cc2)C(=O)c2[nH]c(-c3ccncc3)nc21 | 100 (≈ 271 µM) | > 100 | 6.3 (≈ 17.1 µM) | > 100
10 | O=C1C(Nc2ccc(F)cc2)=CC(=O)c2[nH]c(-c3ccccn3)nc21 | 100 (≈ 299 µM) | 50 (≈ 150 µM) | 1.6 (≈ 4.79 µM) | 100 (≈ 299 µM)
11 | COc1ccc(NC2=C(Cl)C(=O)c3nc(-c4cccnc4)[nH]c3C2=O)cc1 | 100 (≈ 263 µM) | > 100 | 50 (≈ 131 µM) | > 100
12 | Cc1ccc(NC2=CC(=O)c3[nH]c(-c4ccccn4)nc3C2=O)cc1 | 6.3 (≈ 19.1 µM) | 0.4 (≈ 1.21 µM) | 0.8 (≈ 2.42 µM) | 3.2 (≈ 9.69 µM)

Continued, values first:

Row | MIC (Aspergillus niger) [µg/mL] | MIC (Pichia kudriavzevii) [µg/mL] | MIC (Candida tropicalis) [µg/mL] | MIC (Candida albicans) [µg/mL] | Structure (SMILES)
13 | 25 (≈ 67.8 µM) | 6.3 (≈ 17.1 µM) | 3.2 (≈ 8.68 µM) | 12.5 (≈ 33.9 µM) | O=C1C(Cl)=C(Nc2ccc(F)cc2)C(=O)c2[nH]c(-c3ccccn3)nc21
14 | 3.2 (≈ 9.12 µM) | 1.6 (≈ 4.56 µM) | 0.8 (≈ 2.28 µM) | 50 (≈ 143 µM) | O=C1C=C(Nc2ccc(Cl)cc2)C(=O)c2[nH]c(-c3ccccn3)nc21
15 | 6.3 (≈ 16.4 µM) | 6.3 (≈ 16.4 µM) | 3.2 (≈ 8.31 µM) | 6.3 (≈ 16.4 µM) | O=C1C(Cl)=C(Nc2ccc(Cl)cc2)C(=O)c2[nH]c(-c3ccccn3)nc21
16 | 100 (≈ 233 µM) | > 100 | 50 (≈ 116 µM) | > 100 | O=C1C(Cl)=C(Nc2ccc(Br)cc2)C(=O)c2[nH]c(-c3cccnc3)nc21
17 | > 100 | 100 (≈ 210 µM) | 3.2 (≈ 6.71 µM) | 50 (≈ 105 µM) | O=C1C(Cl)=C(Nc2ccc(I)cc2)C(=O)c2[nH]c(-c3ccccn3)nc21
18 | 6.3 (≈ 14.7 µM) | 6.3 (≈ 14.7 µM) | 1.6 (≈ 3.72 µM) | 3.2 (≈ 7.45 µM) | O=C1C(Cl)=C(Nc2ccc(Br)cc2)C(=O)c2[nH]c(-c3ccccn3)nc21
19 | 25 (≈ 68.5 µM) | 3.2 (≈ 8.77 µM) | 1.6 (≈ 4.39 µM) | 12.5 (≈ 34.3 µM) | Cc1ccc(NC2=C(Cl)C(=O)c3nc(-c4ccccn4)[nH]c3C2=O)cc1
20 | 1.6 (≈ 4.05 µM) | 1.6 (≈ 4.05 µM) | 0.8 (≈ 2.02 µM) | 50 (≈ 127 µM) | O=C1C=C(Nc2ccc(Br)cc2)C(=O)c2[nH]c(-c3ccccn3)nc21
21 | 25 (≈ 63.3 µM) | 12.5 (≈ 31.7 µM) | 3.2 (≈ 8.11 µM) | 12.5 (≈ 31.7 µM) | CCOc1ccc(NC2=C(Cl)C(=O)c3[nH]c(-c4ccccn4)nc3C2=O)cc1
22 | 25 (≈ 65.7 µM) | 12.5 (≈ 32.8 µM) | 1.6 (≈ 4.2 µM) | 12.5 (≈ 32.8 µM) | COc1ccc(NC2=C(Cl)C(=O)c3nc(-c4ccccn4)[nH]c3C2=O)cc1
23 | 100 (≈ 271 µM) | > 100 | 12.5 (≈ 33.9 µM) | > 100 | O=C1C(Cl)=C(Nc2ccc(F)cc2)C(=O)c2[nH]c(-c3cccnc3)nc21
24 | 100 (≈ 233 µM) | > 100 | 12.5 (≈ 29.1 µM) | > 100 | O=C1C(Cl)=C(Nc2ccc(Br)cc2)C(=O)c2[nH]c(-c3ccncc3)nc21
25 | 100 (≈ 260 µM) | > 100 | 25 (≈ 64.9 µM) | > 100 | O=C1C(Cl)=C(Nc2ccc(Cl)cc2)C(=O)c2[nH]c(-c3cccnc3)nc21
